Experimental data published in PMC6040592 (Biochemistry, 2017).

Columns and labels:
AaROM [1] = assay: AaROM in vitro activity assay; type: biochemical, Aquifex aeolicus
E. coli GlpG [2] = target: T1, E. coli GlpG (Escherichia coli, UniProt P09391)
[3] = target: neutrophil elastase, ELA2 (Homo sapiens, UniProt P08246); conditions: same concentration range in which GlpG is inhibited
GlpG = GlpG (Escherichia coli, UniProt P09391); conditions: 1 h preincubation at 10 times IC50, 100-fold dilution, 100 min
wild-type GlpG = wild-type GlpG (Escherichia coli, UniProt P09391); conditions: 50 μM inhibitor, 23 °C overnight
HiGlpG = HiGlpG (Haemophilus influenzae, UniProt P44783); assay: Activity-based probe; conditions: 50 μM
VcROM = assay: Activity-based probe; conditions: 50 μM
PsAarA = PsAarA (Providencia stuartii, UniProt P46116); assay: Activity-based probe; conditions: 50 μM
MjROM = assay: Activity-based probe; conditions: 50 μM
AaROM [4] = assay: Activity-based probe; conditions: 50 μM
TmROM = assay: Activity-based probe; conditions: 50 μM
E. coli GlpG [5] = target: T1, E. coli GlpG; assay: GlpG in vitro activity assay; type: biochemical; conditions: read-out: IC50 [μM] GlpG; inhibitor preincubated 30 min at 37 °C, Gurken substrate, 90 min
[6] = system: nine different rhomboid proteases; assay: Activity-based probe; type: binding; conditions: 50 μM
bovine chymotrypsin = bovine chymotrypsin (Bos taurus, UniProt P00766); conditions: read-out: IC50 α-chymotrypsin, value reported in the literature; cited from earlier work
rhomboids = conditions: read-out: IC50 against rhomboids; isocoumarins; cited from earlier work

T1 sequence (P09391 whole entry): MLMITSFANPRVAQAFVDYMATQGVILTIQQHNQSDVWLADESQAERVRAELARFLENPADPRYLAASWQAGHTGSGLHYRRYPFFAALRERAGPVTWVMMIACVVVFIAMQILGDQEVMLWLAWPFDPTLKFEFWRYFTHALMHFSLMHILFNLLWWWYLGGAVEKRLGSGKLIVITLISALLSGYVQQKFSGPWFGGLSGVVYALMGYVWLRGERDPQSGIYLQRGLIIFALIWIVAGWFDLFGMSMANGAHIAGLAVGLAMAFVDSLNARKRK
Chain of GlpG (P09391 whole entry): as above
Chain of wild-type GlpG (P09391 whole entry): as above
Chain of neutrophil elastase, ELA2 (P08246 30-267): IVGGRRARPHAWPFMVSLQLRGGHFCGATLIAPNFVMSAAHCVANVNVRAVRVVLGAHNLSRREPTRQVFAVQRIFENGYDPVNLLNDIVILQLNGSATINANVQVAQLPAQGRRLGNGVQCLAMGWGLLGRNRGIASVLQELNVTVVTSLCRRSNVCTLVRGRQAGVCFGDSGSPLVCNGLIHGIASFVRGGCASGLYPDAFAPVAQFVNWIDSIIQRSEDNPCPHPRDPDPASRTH
Chain of PsAarA (P46116 whole entry): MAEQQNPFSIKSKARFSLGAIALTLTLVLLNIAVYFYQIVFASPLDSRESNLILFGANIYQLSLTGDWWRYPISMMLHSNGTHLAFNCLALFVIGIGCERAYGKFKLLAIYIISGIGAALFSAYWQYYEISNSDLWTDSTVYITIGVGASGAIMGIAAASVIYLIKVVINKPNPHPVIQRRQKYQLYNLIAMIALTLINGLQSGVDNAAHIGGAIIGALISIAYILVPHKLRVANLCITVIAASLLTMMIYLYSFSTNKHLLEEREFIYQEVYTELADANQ
Chain of HiGlpG (P44783 whole entry): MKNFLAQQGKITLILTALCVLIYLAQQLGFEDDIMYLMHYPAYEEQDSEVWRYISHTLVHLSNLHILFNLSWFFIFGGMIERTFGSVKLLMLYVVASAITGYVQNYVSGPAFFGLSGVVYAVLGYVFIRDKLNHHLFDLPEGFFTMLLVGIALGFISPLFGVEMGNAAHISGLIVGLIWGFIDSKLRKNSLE

Compound | fold lower potency toward AaROM in comparison to GlpG (AaROM [1]) | inhibition of ABP labelling, E. coli GlpG (E. coli GlpG [2]) | inhibition of neutrophil elastase, ELA2 [3] | recovery of GlpG activity after rapid dilution (GlpG) | mass shift of inhibitor-GlpG adduct (wild-type GlpG) [Da] | inhibition of ABP labelling, HiGlpG (HiGlpG) | inhibition of ABP labelling, VcROM (VcROM) | inhibition of ABP labelling, PsAarA (PsAarA) | inhibition of ABP labelling, MjROM (MjROM) | inhibition of ABP labelling, AaROM (AaROM [4]) | inhibition of ABP labelling, TmROM (TmROM) | IC50 (E. coli GlpG [5]) [µM] | inhibition of the activity of all nine rhomboids [6] | IC50 (bovine chymotrypsin) [µM] | IC50 (rhomboids) [µM]
O=C(OCN1C(=O)c2ccccc2S1(=O)=O)c1ccccc1Cl [BSc5195] | approximately 100 fold | active | appreciable inhibition | less but noticeable recovery of GlpG activity | 195 | active | active | active | active | only partially inhibited | only partially inhibited |  |  |  | 
O=c1oc(Cl)c(Cl)c2ccccc12 [DCI, dichloroisocoumarin] |  |  |  |  |  |  |  |  |  |  |  | 19 | 80–100% | 2.8 | 
COc1oc(=O)c2cc(N)ccc2c1Cl [JLK-6, reference compound] |  |  |  | No recovery of enzyme activity |  |  |  |  |  |  |  |  |  |  | ~6
